Measured values published in US11708348B2, “Protease inhibitors for treatment of coronavirus infections” (The Scripps Research Institute, priority 2021, dated 2023).
Read-outs that look alike come from different tables or passages of the source.

System: SARS-CoV-2 strain USA-WA1/2020
Assay: microbe, parasite or virus in culture
Format: cell-based
Conditions: read-out: EC50, uM (Hela)
[1] = Severe acute respiratory syndrome coronavirus 2, HeLa-ACE2, 24 h, HeLa-ACE2 cells, SARS-CoV-2 infection, 24 h
[2] = Severe acute respiratory syndrome coronavirus 2, HeLa-ACE2, 24 h, HeLa-ACE2 cells, SARS-CoV-2 infection, 24 h, class symbols

Compound | EC50 [1] | EC50 [2] | other results
O=C1NCC[C@H]1C[C@H](NC(=O)[C@@H]1CC2(CC2)CN1C(=O)COc1ccc(OC(F)(F)F)cc1)C(=O)COC(F)(F)F [Compound 773, (S)-N-((S)-3-oxo-1-((S)-2-oxopyrrolidin-3-yl)-4-(trifluoromethoxy)butan-2-yl)-5-(2-(4-(trifluoromethoxy)phenoxy)acetyl)-5-azaspiro[2.4]heptane-6-carboxamide] | < 0.05 µM |  | 
CC(C)C[C@@H](O)C(=O)N1CC2(CCC2)CC1C(=O)N[C@@H](C[C@@H]1CCNC1=O)C(=O)COC(F)(F)F (stereo partly drawn) [Compound 770, 6-((R)-2-hydroxy-4-methylpentanoyl)-N-((S)-3-oxo-1-((S)-2-oxopyrrolidin-3-yl)-4-(trifluoromethoxy)butan-2-yl)-6-azaspiro[3.4]octane-7-carboxamide] | 0.05 to 0.2 µM |  | 
CC(C)C[C@H](NC(=O)C(=O)Nc1ccc(Cl)cc1)C(=O)N[C@@H](C[C@@H]1CCNC1=O)C(=O)COc1c(F)c(F)cc(F)c1F [Compound 39, N1-(4-chlorophenyl)-N2-((S)-4-methyl-1-oxo-1-(((S)-3-oxo-1-((S)-2-oxopyrrolidin-3-yl)-4-(2,3,5,6-tetrafluorophenoxy)butan-2-yl)amino)pentan-2-yl)oxalamide] |  | 0.05 to 0.2 µM | 
CC1(C)[C@@H]2[C@@H](C(=O)N[C@@H](C[C@@H]3CCNC3=O)C(=O)COC(F)(F)F)N(C(=O)[C@@H](O)c3ccccc3F)C[C@@H]21 [Compound 411, (1R,2S,5S)-3-((S)-2-(2-fluorophenyl)-2-hydroxyacetyl)-6,6-dimethyl-N-((S)-3-oxo-1-((S)-2-oxopyrrolidin-3-yl)-4-(trifluoromethoxy)butan-2-yl)-3-azabicyclo-[3.1.0]hexane-2-carboxamide] | < 0.05 µM |  | 
CC1(C)[C@@H]2[C@@H](C(=O)N[C@@H](C[C@@H]3CCNC3=O)C(=O)COC(F)(F)F)N(C(=O)[C@H]3COCCO3)C[C@@H]21 [Compound 306, (1R,2S,5S)-3-((R)-1,4-dioxane-2-carbonyl)-6,6-dimethyl-N-((S)-3-oxo-1-((S)-2-oxopyrrolidin-3-yl)-4-(trifluoromethoxy)butan-2-yl)-3-azabicyclo[3.1.0]-hexane-2-carboxamide] |  | 0.05 to 0.2 µM | 
CC(C)C[C@H](CC(=O)NCc1c(F)cccc1F)C(=O)N[C@@H](C[C@@H]1CCNC1=O)C(=O)COc1c(F)c(F)cc(F)c1F [Compound 55, (R)-N4-(2,6-difluorobenzyl)-2-isobutyl-N1-((S)-3-oxo-1-((S)-2-oxopyrrolidin-3-yl)-4-(2,3,5,6-tetrafluorophenoxy)butan-2-yl)succinamide] |  |  | EC50 (Severe acute respiratory syndrome coronavirus 2, HeLa-ACE2, 24 h, HeLa-ACE2 cells, SARS-CoV-2 infection, 24 h, cells given as a bound): > 1 µM
CC(C)C[C@H](NC(=O)C(=O)Nc1c(C2CC2)cccc1C1CC1)C(=O)N[C@@H](C[C@@H]1CCNC1=O)C(=O)COC(F)(F)F [Compound 185, N1-(2,6-dicyclopropylphenyl)-N2-((S)-4-methyl-1-oxo-1-(((S)-3-oxo-1-((S)-2-oxopyrrolidin-3-yl)-4-(trifluoromethoxy)butan-2-yl)amino)pentan-2-yl)oxalamide] |  | < 0.05 µM | 
CC[C@@H](OC)C(=O)N[C@@H](CC(C)C)C(=O)N[C@@H](C[C@@H]1CCNC1=O)C(=O)COC(F)(F)F [Compound 337, (S)-2-((R)-2-methoxybutanamido)-4-methyl-N-((S)-3-oxo-1-((S)-2-oxopyrrolidin-3-yl)-4-(trifluoromethoxy)butan-2-yl)pentanamide] |  | 0.05 to 0.2 µM | 
O=C1NCC[C@H]1C[C@H](NC(=O)[C@@H]1[C@H]2CCC[C@H]2CN1C(=O)C1(NC(=O)C(F)(F)F)CCC1)C(=O)COC(F)(F)F [Compound 274, (1S,3aR,6aS)-N-((S)-3-oxo-1-((S)-2-oxopyrrolidin-3-yl)-4-(trifluoromethoxy)butan-2-yl)-2-(l-(2,2,2-trifluoroacetamido)-cyclobutane-1-carbonyl)octahydro-cyclopenta[c]pyrrole-l-carboxamide] |  |  | EC50: 0.2 to 0.5 µM
CC(C)C[C@H](NC(=O)C(=O)N[C@H]1CCCc2ccccc21)C(=O)N[C@@H](C[C@@H]1CCNC1=O)C(=O)COc1c(F)c(F)cc(F)c1F [Compound 145, N^1—((S)-4-methyl-1-oxo-1-(((S)-3-oxo-1-((S)-2-oxopyrrolidin-3-yl)-4-(2,3,5,6-tetrafluorophenoxy)butan-2-yl)amino)pentan-2-yl)-N^2—((S)-1,2,3,4-tetrahydronaphthalen-1-yl)oxalamide] |  | 0.2 to 0.5 µM | 
CN(C)S(=O)(=O)N(C)CC(=O)N1CC2(CC2)C[C@H]1C(=O)N[C@@H](C[C@@H]1CCNC1=O)C(=O)COC(F)(F)F [Compound 693, (S)-5-(N-(N,N-dimethylsulfamoyl)-N-methylglycyl)-N-((S)-3-oxo-1-((S)-2-oxopyrrolidin-3-yl)-4-(trifluoromethoxy)butan-2-yl)-5-azaspiro[2.4]heptane-6-carboxamide] | 0.2 to 0.5 µM |  | 
CC(C)C[C@@H](OC(=O)NC(C)C)C(=O)N1CC2(CC2)C[C@H]1C(=O)N[C@@H](C[C@@H]1CCNC1=O)C(=O)COC(F)(F)F [Compound 329, (R)-4-methyl-1-oxo-1-((S)-6-(((S)-3-oxo-l-((S)-2-oxopyrrolidin-3-yl)-4-(trifluoromethoxy)butan-2-yl)carbamoyl)-5-azaspiro[2.4]heptan-5-yl)pentan-2-yl isopropylcarbamate] |  | < 0.05 µM | 
CC(C)C[C@H](NC(=O)CNc1ccccc1)C(=O)N[C@@H](C[C@@H]1CCNC1=O)C(=O)COc1c(F)c(F)cc(F)c1F [Compound 40, (S)-4-methyl-N-((S)-3-oxo-1-((S)-2-oxopyrrolidin-3-yl)-4-(2,3,5,6-tetrafluorophenoxy)butan-2-yl)-2-(2-(phenylamino)-acetamido)pentanamide] |  | < 0.05 µM | 
CC(C)C[C@H](NC(=O)C(=O)Nc1ccccc1Cc1ccccc1)C(=O)N[C@@H](C[C@@H]1CCNC1=O)C(=O)COc1c(F)c(F)cc(F)c1F [Compound 57, N1-(2-benzylphenyl)-N2-((S)-4-methyl-1-oxo-1-(((S)-3-oxo-1-((S)-2-oxopyrrolidin-3-yl)-4-(2,3,5,6-tetrafluorophenoxy)butan-2-yl)amino)pentan-2-yl)oxalamide] |  | 0.2 to 0.5 µM | 
CC(C)CC(C(=O)N[C@@H](C[C@@H]1CCNC1=O)C(=O)COC(F)(F)F)n1cc(C(=O)NC(C)(C)C)nn1 (stereo partly drawn) [Compound 592, N-(tert-butyl)-1-(4-methyl-1-oxo-1-(((S)-3-oxo-1-((S)-2-oxopyrrolidin-3-yl)-4-(trifluoromethoxy)butan-2-yl)amino)pentan-2-yl)-1H-1,2,3-triazole-4-carboxamide] | 0.05 to 0.2 µM |  | 
O=C1NCC[C@H]1C[C@H](NC(=O)[C@@H]1CC2(CC2)CN1C(=O)c1ccc(F)cc1F)C(=O)COC(F)(F)F [Compound 710, (S)-5-(2,4-difluorobenzoyl)-N-((S)-3-oxo-l-((S)-2-oxopyrrolidin-3-yl)-4-(trifluoromethoxy)butan-2-yl)-5-azaspiro[2.4]heptane-6-carboxamide] | 0.2 to 0.5 µM |  | 
CC(C)C[C@H](NC(=O)C(=O)Nc1c(C(C)C)cccc1C(C)C)C(=O)N[C@@H](C[C@@H]1CCNC1=O)C(=O)COC(F)(F)F [Compound 159, Nl-(2,6-diisopropylphenyl)-N2-((S)-4-methyl-1-oxo-1-(((S)-3-oxo-1-((S)-2-oxopyrrolidin-3-yl)-4-(trifluoromethoxy)butan-2-yl)amino)pentan-2-yl)oxalamide] |  | < 0.05 µM | 
CCCC(=O)N1CC2(CC2)C[C@H]1C(=O)N[C@@H](C[C@@H]1CCNC1=O)C(=O)COC(F)(F)F [Compound 705, (S)-5-butyryl-N-((S)-3-oxo-1-((S)-2-oxopyrrolidin-3-yl)-4-(trifluoromethoxy)butan-2-yl)-5-azaspiro[2.4]heptane-6-carboxamide] | 0.2 to 0.5 µM |  | 
O=C1NCC[C@H]1C[C@H](NC(=O)[C@@H]1CC2(CC2)CN1C(=O)C1CCCC1)C(=O)COC(F)(F)F [Compound 723, (S)-5-(cyclopentanecarbonyl)-N-((S)-3-oxo-1-((S)-2-oxopyrrolidin-3-yl)-4-(trifluoromethoxy)butan-2-yl)-5-azaspiro[2.4]heptane-6-carboxamide] | 0.05 to 0.2 µM |  | 
O=C(Nc1ccccc1F)C(=O)N[C@@H](CC1CC1)C(=O)N[C@@H](C[C@@H]1CCNC1=O)C(=O)COc1c(F)c(F)cc(F)c1F [Compound 109, N1-((S)-3-cyclopropyl-1-oxo-1-(((S)-3-oxo-1-((S)-2-oxopyrrolidin-3-yl)-4-(2,3,5,6-tetrafluorophenoxy)butan-2-yl)amino)propan-2-yl)-N2-(2-fluorophenyl)oxalamide] |  | < 0.05 µM | 
CC(C)C[C@H](NC(=O)[C@H](O)c1cccc(Cl)c1)C(=O)N[C@@H](C[C@@H]1CCNC1=O)C(=O)COc1c(F)c(F)cc(F)c1F [Compound 146, (S)-2-((R)-2-(3-chlorophenyl)-2-hydroxyacetamido)-4-methyl-N-((S)-3-oxo-1-((S)-2-oxopyrrolidin-3-yl)-4-(2,3,5,6-tetrafluorophenoxy)butan-2-yl)pentanamide] |  | 0.05 to 0.2 µM | 
CC[C@@H](OC(F)(F)F)C(=O)N1C[C@H]2[C@@H]([C@H]1C(=O)N[C@@H](C[C@@H]1CCNC1=O)C(=O)COC(F)(F)F)C2(C)C [Compound 335, (1R,2S,5S)-6,6-dimethyl-N-((S)-3-oxo-1-((S)-2-oxopyrrolidin-3-yl)-4-(trifluoromethoxy)butan-2-yl)-3-((R)-2-(trifluoromethoxy)butanoyl)-3-azabicyclo[3.1.0]-hexane-2-carboxamide] |  | < 0.05 µM | 
COc1ccccc1NC(=O)C(=O)N1CC2(CC2)C[C@H]1C(=O)N[C@@H](C[C@@H]1CCNC1=O)C(=O)COC(F)(F)F [Compound 575, (S)-5-(2-((2-methoxyphenyl)-amino)-2-oxoacetyl)-N-((S)-3-oxo-1-((S)-2-oxopyrrolidin-3-yl)-4-(trifluoromethoxy)butan-2-yl)-5-azaspiro[2.4]-heptane-6-carboxamide] | 0.5 to 1 µM |  | 
